The values below are quoted from earlier work in patent US10603329B2 (INDENA S.P.A., priority 2006, dated 2020).

Each structure is given as a SMILES string.

Usually IC50 stands for the concentration that inhibits the measured activity by half.

For the series, the system named is cancer cells. The following applies: in vitro; read-out: IC50, growth of cancer cells.

For the compound `COc1cc(C=CC(=O)CC(=O)C=Cc2ccc(O)c(OC)c2)ccc1O` [curcumin, 1,7-bis(4-hydroxyl-3-methoxyphenyl)-1,6-heptadiene-3,5-dione], the IC50 is 20 to 75 µM.
